Columns and labels:
[1] = The drug is tested on Ruminococcus torques strain: ATCC27756 for biotransformation. The drug concentrations were measured before and after a 12-h incubation by liquid-chromatography-coupled mass spectrometry (LC–MS); type: ADME; parameters: dose 2 uM, timepoint 0 vs 12 hours; conditions: 2 µM
[2] = The drug is tested on Bacteroides fragilis strain: HMW615 for biotransformation. The drug concentrations were measured before and after a 12-h incubation by liquid-chromatography-coupled mass spectrometry (LC–MS); conditions: 2 µM
[3] = anaerostipes sp., 12 h, 2 µM
Description: The drug is tested on Anaerostipes sp. strain: fecal isolate for biotransformation. The drug concentrations were measured before and after a 12-h incubation by liquid-chromatography-coupled mass spectrometry (LC–MS)

[4] = The drug is tested on Clostridium symbiosum strain: ATCC14940 for biotransformation. The drug concentrations were measured before and after a 12-h incubation by liquid-chromatography-coupled mass spectrometry (LC–MS); conditions: 2 µM
[5] = The drug is tested on Clostridium sporogenes strain: ATCC15579 for biotransformation. The drug concentrations were measured before and after a 12-h incubation by liquid-chromatography-coupled mass spectrometry (LC–MS); conditions: 2 µM
[6] = The drug is tested on Anaerococcus hydrogenalis strain: DSM7454 for biotransformation. The drug concentrations were measured before and after a 12-h incubation by liquid-chromatography-coupled mass spectrometry (LC–MS); conditions: 2 µM
[7] = roseburia intestinalis, 12 h, 2 µM
Description: The drug is tested on Roseburia intestinalis strain: L1-82 for biotransformation. The drug concentrations were measured before and after a 12-h incubation by liquid-chromatography-coupled mass spectrometry (LC–MS)

[8] = The drug is tested on Collinsella aerofaciens strain: ATCC25986 for biotransformation. The drug concentrations were measured before and after a 12-h incubation by liquid-chromatography-coupled mass spectrometry (LC–MS); conditions: 2 µM
[9] = The drug is tested on Bacteroides fragilis strain: HMW610 for biotransformation. The drug concentrations were measured before and after a 12-h incubation by liquid-chromatography-coupled mass spectrometry (LC–MS); conditions: 2 µM
[10] = The drug is tested on Alistipes indistinctus strain: DSM22520 for biotransformation. The drug concentrations were measured before and after a 12-h incubation by liquid-chromatography-coupled mass spectrometry (LC–MS); conditions: 2 µM
[11] = bifidobacterium adolescentis, 12 h, 2 µM
Description: The drug is tested on Bifidobacterium adolescentis strain: ATCC 15703 for biotransformation. The drug concentrations were measured before and after a 12-h incubation by liquid-chromatography-coupled mass spectrometry (LC–MS)

[12] = enterocloster bolteae, 12 h, 2 µM
Description: The drug is tested on Clostridium bolteae strain: ATCCBAA-613 for biotransformation. The drug concentrations were measured before and after a 12-h incubation by liquid-chromatography-coupled mass spectrometry (LC–MS)

[13] = The drug is tested on Anaerotruncus colihominis strain: DSM17241 for biotransformation. The drug concentrations were measured before and after a 12-h incubation by liquid-chromatography-coupled mass spectrometry (LC–MS); conditions: 2 µM
[14] = The drug is tested on Clostridium scindens strain: ATCC35704 for biotransformation. The drug concentrations were measured before and after a 12-h incubation by liquid-chromatography-coupled mass spectrometry (LC–MS); conditions: 2 µM
[15] = bacteroides eggerthii, 12 h, 2 µM
Description: The drug is tested on Bacteroides eggerthii strain: DSM20697 for biotransformation. The drug concentrations were measured before and after a 12-h incubation by liquid-chromatography-coupled mass spectrometry (LC–MS)

[16] = segatella copri, 12 h, 2 µM
Description: The drug is tested on Prevotella copri strain: DSM18205 for biotransformation. The drug concentrations were measured before and after a 12-h incubation by liquid-chromatography-coupled mass spectrometry (LC–MS)

[17] = The drug is tested on Bacteroides ovatus strain: ATCC8483 for biotransformation. The drug concentrations were measured before and after a 12-h incubation by liquid-chromatography-coupled mass spectrometry (LC–MS); conditions: 2 µM
[18] = The drug is tested on Bacteroides finegoldii strain: DSM17565 for biotransformation. The drug concentrations were measured before and after a 12-h incubation by liquid-chromatography-coupled mass spectrometry (LC–MS); conditions: 2 µM
[19] = The drug is tested on Parabacteroides merdae strain: ATCC43184 for biotransformation. The drug concentrations were measured before and after a 12-h incubation by liquid-chromatography-coupled mass spectrometry (LC–MS); conditions: 2 µM
[20] = parabacteroides johnsonii, 12 h, 2 µM
Description: The drug is tested on Parabacteroides johnsonii strain: DSM18315 for biotransformation. The drug concentrations were measured before and after a 12-h incubation by liquid-chromatography-coupled mass spectrometry (LC–MS)

Row | SMILES | Bacterial Biotransformation [1] | Bacterial Biotransformation [2] | Bacterial Biotransformation [3] | Bacterial Biotransformation [4] | Bacterial Biotransformation [5] | Bacterial Biotransformation [6] | Bacterial Biotransformation [7] | Bacterial Biotransformation [8] | Bacterial Biotransformation [9] | Bacterial Biotransformation [10] | Bacterial Biotransformation [11] | Bacterial Biotransformation [12] | Bacterial Biotransformation [13] | Bacterial Biotransformation [14] | Bacterial Biotransformation [15] | Bacterial Biotransformation [16] | Bacterial Biotransformation [17] | Bacterial Biotransformation [18] | Bacterial Biotransformation [19] | Bacterial Biotransformation [20]
1 | CN(C)C(=O)C(CCN1CCC(O)(c2ccc(Cl)cc2)CC1)(c1ccccc1)c1ccccc1 [LOPERAMIDE] | Compound NOT metabolized | Compound NOT metabolized | Compound NOT metabolized | Compound NOT metabolized | Compound metabolized | Compound NOT metabolized | Compound metabolized | Compound NOT metabolized | Compound metabolized | Compound metabolized | Compound NOT metabolized | Compound NOT metabolized | Compound NOT metabolized | Compound NOT metabolized | Compound metabolized | – | – | – | – | –
2 | CCCCc1nc(Cl)c(CO)n1Cc1ccc(-c2ccccc2-c2nn[nH]n2)cc1 [LOSARTAN] | Compound NOT metabolized | Compound metabolized | Compound NOT metabolized | Compound NOT metabolized | Compound NOT metabolized | Compound NOT metabolized | – | Compound NOT metabolized | Compound metabolized | Compound NOT metabolized | Compound NOT metabolized | Compound NOT metabolized | Compound NOT metabolized | Compound NOT metabolized | – | Compound NOT metabolized | Compound NOT metabolized | Compound metabolized | Compound metabolized | Compound metabolized
3 | OC(c1cc(C(F)(F)F)nc2c(C(F)(F)F)cccc12)C1CCCCN1 (centres undefined) [MEFLOQUINE] | – | Compound NOT metabolized | Compound NOT metabolized | Compound NOT metabolized | – | – | Compound metabolized | Compound NOT metabolized | Compound NOT metabolized | Compound NOT metabolized | Compound NOT metabolized | Compound NOT metabolized | – | Compound NOT metabolized | Compound NOT metabolized | Compound NOT metabolized | Compound NOT metabolized | Compound NOT metabolized | Compound NOT metabolized | Compound NOT metabolized
4 | COc1c2occc2cc2ccc(=O)oc12 [METHOXSALEN] | Compound NOT metabolized | Compound metabolized | Compound metabolized | Compound metabolized | Compound metabolized | Compound NOT metabolized | Compound metabolized | Compound NOT metabolized | Compound metabolized | Compound NOT metabolized | Compound NOT metabolized | Compound metabolized | Compound NOT metabolized | Compound NOT metabolized | Compound metabolized | Compound NOT metabolized | – | Compound metabolized | – | Compound metabolized
5 | COC(=O)C(c1ccccc1)C1CCCCN1 (centres undefined) [METHYLPHENIDATE] | Compound NOT metabolized | Compound NOT metabolized | – | – | Compound metabolized | – | – | Compound NOT metabolized | Compound NOT metabolized | Compound NOT metabolized | – | Compound NOT metabolized | Compound NOT metabolized | – | Compound NOT metabolized | – | Compound NOT metabolized | Compound NOT metabolized | – | Compound metabolized
6 | CC(=O)O[C@H]1C(=O)[C@@]2(C)[C@H]([C@H](OC(=O)c3ccccc3)[C@]3(O)C[C@H](OC(=O)[C@H](O)[C@@H](NC(=O)c4ccccc4)c4ccccc4)C(C)=C1C3(C)C)[C@]1(OC(C)=O)CO[C@@H]1C[C@@H]2O [PACLITAXEL] | Compound NOT metabolized | Compound NOT metabolized | Compound NOT metabolized | Compound NOT metabolized | Compound NOT metabolized | Compound NOT metabolized | Compound NOT metabolized | Compound NOT metabolized | – | Compound NOT metabolized | Compound NOT metabolized | Compound NOT metabolized | Compound NOT metabolized | Compound NOT metabolized | Compound NOT metabolized | Compound NOT metabolized | – | Compound NOT metabolized | Compound NOT metabolized | Compound NOT metabolized
7 | CC(C)(C)NC[C@H](O)COc1ccccc1C1CCCC1.CC(C)(C)NC[C@H](O)COc1ccccc1C1CCCC1.O=S(=O)(O)O [PENBUTOLOL SULFATE] | Compound NOT metabolized | Compound NOT metabolized | Compound NOT metabolized | Compound NOT metabolized | Compound NOT metabolized | Compound NOT metabolized | Compound NOT metabolized | Compound NOT metabolized | Compound NOT metabolized | Compound NOT metabolized | Compound NOT metabolized | Compound NOT metabolized | Compound NOT metabolized | Compound NOT metabolized | Compound NOT metabolized | – | Compound NOT metabolized | Compound NOT metabolized | Compound NOT metabolized | –
8 | O=C(NC(Cc1cc(=O)[nH]c2ccccc12)C(=O)O)c1ccc(Cl)cc1 (centres undefined) [REBAMIPIDE] | Compound NOT metabolized | Compound metabolized | Compound NOT metabolized | Compound NOT metabolized | – | Compound NOT metabolized | Compound NOT metabolized | Compound NOT metabolized | Compound metabolized | Compound NOT metabolized | Compound NOT metabolized | Compound NOT metabolized | Compound NOT metabolized | Compound NOT metabolized | Compound NOT metabolized | Compound NOT metabolized | Compound NOT metabolized | Compound NOT metabolized | Compound NOT metabolized | Compound NOT metabolized
